Measurements reported in ChEMBL document CHEMBL2046275, “Cellular quantitative structure-activity relationship (Cell-QSAR): conceptual dissection of receptor binding and intracellular disposition in antifilarial activities of Selwood antimycins” (J Med Chem, 2012).

Test system: Acanthocheilonema viteae
Experiment: Antifilarial activity against Dipetalonema viteae after 120 hrs
Format: functional, organism-based
Conditions: read-out: log(1/EC50) (converted)

`O=C(Nc1ccc(C(O)c2ccccc2)cc1)c1cc([N+](=O)[O-])ccc1O` (stereo not drawn) was tested. Which EC50 did it give?
The EC50 was > 10 µM.

`CCCCCCNC(=O)c1cccc(NC=O)c1O` was tested. Which EC50 did it give?
Its EC50 is > 10 µM.

With `O=C(Nc1ccc(Nc2ccc(SC(F)(F)F)cc2)c(Cl)c1)c1cc([N+](=O)[O-])ccc1O` as the molecule, how does the EC50 read?
The EC50 was 0.028 µM.
